From patent US8206756B2, “Herbal composition for inflammatory disorders” (Piramal Life Sciences Limited, priority 2005, dated 2012)

What was measured:
E-Selectin = test: Cell-ELISA for adhesion molecule expression in HUVECs: E-Selectin; type: cell-based; details: Homo sapiens; TNF-α-induced surface expression, HUVEC
Experimental: (§1) The assay was designed on the basis of reference Transplantation, Vol 63(5), 759-764, 1997 with modifications.
(§2) Human Umbilical Vein Endothelial Cells (HUVECs) were obtained from Cascade Biologics and were maintained in M200 (Cascade Biologics, Portland, Oreg.) supplemented with low serum growth supplement (LSGS) at 37° C. in a 5% CO2 incubator. U937 cells (ATCC, Manassas, Va.) were grown in the RPMI 1640 medium supplemented with 10% FBS (Hyclone, Logan, Utah). Recombinant human TNFα, antibodies to VCAM-1, ICAM-1, E-Selectin were obtained from R&D Systems and LPS was obtained from Sigma (St. Louis, Mo.).
(§3) HUVECs were plated at […] in 96-well fibronectin-coated plates. The cells were stimulated with TNF-α (10 ng/ml) or LPS (1 μg/ml), 30 min after addition of test compound. After stimulation, cells (E-Selectin and ICAM-1) were fixed with paraformaldehyde in phosphate buffer saline (PBS). Non specific binding was blocked by 2% bovine serum albumin (BSA) in phosphate buffer saline (PBS) for 1 h, and the cells were incubated with primary antibody for 2 h. […] After washing, seven times, 3,3′5,5′-tetramethylbenzidine liquid substrate (TMB substrate) was added and the optical density of each well was determined at 450 nm using a microtitre plate reader (Spectramax, Molecular Devices, Calif.). […] Percent inhibition of the test sample compared to the control is evaluated. […]

[1] = system: THP-1 cell adhesion to HUVECs; test: Adhesion of THP-1 mononuclear cells to HUVEC monolayers; type: cell-based, human; details: for Fluorescence Intensity: TNF-α 1 ng/ml; for Fold of control: unstimulated DMSO control = 1, stimulated = 18
Experimental: Adhesion studies were performed with the promonocytic cell line THP-1, which has been established as a useful model for monocytes in adhesion studies in Circ. Res., 97, 236-243, 2005, with modifications. THP-1 cells were washed twice with labeling medium (M200 plus LSGS). THP-1 cells (6×10^5 cells per ml) were labeled with 10 μg/ml bis-carboxyethyl-carboxyfluorescein acetoxymethylester (a fluorescent probe, BCECF-AM; Sigma) for 30 min at RT. After quenching with 0.1% BSA, the pellet was resuspended in labeling medium. To evaluate monocyte adhesion, HUVEC monolayers treated with TNF-α (1 ng/ml) in the presence or absence of various concentrations of test sample. The media was removed, washed and labeled-THP-1-cells were added to the wells (6×10^4 cells per well) and incubated for 10 minutes at RT in the dark. After co incubation, the wells were washed, filled with lysis buffer (0.1% Triton-X in 1.5 M Tris buffer) and incubated for 30 min. The fluorescence was measured using a fluorescent reader (PolarStar Optima, BMG Labtech) at an excitation peak of 485 nm and an emission peak of 520 nm. Values are means±SEM, representing fluorescent adhesion data. BAY 11-7082 [(E)-3-(4-methylphenylsulfonyl)-2-propenenitrile] was used as a standard and DMSO as vehicle control.

IL-8 = IL-8 production by synovial cells from a RA patient; type: cell-based; details: Homo sapiens, Synovial cell, 10 hours
Experimental: Cytokine production by synovial cells obtained from a rheumatoid arthritis (RA) patient undergoing knee replacement surgery was measured according to the method described by Brennan, F. M. et al (The Lancet. July 29: 244-247, (1989)). The synovial membrane tissue was digested in DMEM (Gibco) containing 10% FBS, 100 U/ml penicillin and 100 μg/ml streptomycin, 4 mg/ml collagenase type I (Worthington), 1.5 μg/ml Dnase type I (Sigma) and 15 U/ml heparin and incubated at 37° C. for 3 hours. After incubation, the digested tissue was filtered through a 70-μm membrane and the cells washed 3 times in complete medium (DMEM with 10% FBS). The synovial cells were cultured at 1×10^6 cells/ml in presence/absence of the test sample for 10 hours. The supernatants were harvested by centrifugation and levels of the cytokines (TNF-α, IL-1β, IL-6, IL-8) measured by ELISA. To assess the cytotoxic effect of the plant extracts, the cellular viability test was performed using MTS reagent. The 50% inhibitory concentration (IC50) values were calculated by a nonlinear regression method using GraphPad software (Prism 3.03).
Effect on proinflammatory cytokines produced by synovial cells obtained from a RA patient was studied for compound 1 as described by procedure of example 8.

VCAM-1 = test: Cell-ELISA for adhesion molecule expression in HUVECs: VCAM-1; type: cell-based; details: Homo sapiens; TNF-α-induced surface expression, HUVEC
Experimental: as §1, §2, §3

IC50 (E-Selectin): 200 nM
IC50 (IL-8): 10900 nM
IC50 (VCAM-1): 400 nM
Structure (SMILES): C=C1C(=O)OC2C3=C(C)CCCC3(C)CCC12O (stereo not drawn) [Compound 1, 3a-hydroxy-5a,9-dimethyl-3-methylene-3a,4,5,5a,6,7,8,9b-octahydro-3H-naphtho[1,2-b]furan-2-one]
Fluorescence Intensity ([1]; 0.1 μM): 33421
Fold of control ([1]; 0.1 μM): 13
Fluorescence Intensity ([1]; 0.3 μM): 34024
Fold of control ([1]; 0.3 μM): 13
Fluorescence Intensity ([1]; 1 μM): 10195
Fold of control ([1]; 1 μM): 4
Fluorescence Intensity ([1]; 3 μM): 5728
Fold of control ([1]; 3 μM): 2
TNF-α stimulated monocytic THP-1 cell adhesion to HUVECs ([1]; at 1 μM): inhibited
